Assay [1] has as its target T1, PHL (Photorhabdus asymbiotica, UniProt C7BLE4). Description: Hemagglutination inhibition assay with PHL (papain-treated human RBCs O). The settings on record: for MIC (minimal inhibitory concentration, hemagglutination by PHL): RBC O, two independent measurements; for PotencyL-Fuc / β L-Fuc (affinity improvement factor) / β Azide1 (affinity improvement factor) / PotencyAzide1: hemagglutination; for PotencyL-Fuc: MIC L-fucose / MIC ligand; for β L-Fuc (affinity improvement factor): MICbasic unit/(valency × MICligand), basic unit L-Fuc; for β Azide1 (affinity improvement factor): basic unit azide 1; for PotencyAzide1: relative to azide 1. Type of assay: cell-based. On the procedure: The set of potential ligands 1–10 with different levels of fucosylation was tested, and their inhibition potency on hemagglutination by PHL was assessed (Table 1, Fig. 2). […] To assess the contribution of valency to the affinity increase, an affinity improvement factor β was calculated as the relationship MICbasic unit/(valency × MICligand).
Human red blood cells (RBCs) O were processed according to previously published work[16]. In brief, RBCs O treated with sodium citrate were washed four times by PBS buffer (137 mM NaCl, 2.7 mM KCl, 8 mM Na2HPO4, 1.47 mM KH2PO4, pH 7.4), diluted to 50% by PBS with 0.005% (w/w) sodium azide and treated by 0.1% papain for the duration of 30 minutes.
Hemagglutination inhibition assay was performed for specificity and semi-quantitative affinity of the PHL interaction with the compounds. All carbohydrate inhibitors in 50 mM starting concentration were serially diluted in the PBS buffer and used for a determination of the lowest inhibiting concentration. As a blank, the PBS buffer supplemented with the appropriate amount of DMSO was used in order to exclude potential interference with the interaction. The individual samples were mixed with the lectin in concentration 2 mg/ml in a 5 μl:5 μl ratio. Thereafter, 10 μl of 10% RBCs O in PBS buffer was added, thoroughly mixed and incubated for 10 minutes at room temperature. Following incubation, the mixture was again mixed and the reaction was observed on microscope slides using Levenhuk 2L NG microscope with Levenhuk D2L digital camera (Levenhuk, USA). Imagines were obtained via software ToupView for Windows (Levenhuk). The positive (PHL without inhibitor) and negative control (reaction without PHL) were prepared and processed in the same way using the appropriate volume of PBS buffer instead of the not included components. The lowest concentration of inhibitor able to inhibit agglutination was determined and compared with the standard (L-fucose). Minimal inhibitory concentrations (MIC) of synthesised inhibitors were determined from two independent measurements.

The target of assay [2] is T1, PHL. Description: SPR competitive inhibition of PHL binding to α-L-fucoside sensor chip. The settings on record: for IC50: 25 °C, three independent measurements; for β L-Fuc (affinity improvement factor): IC50,basic unit/(valency × IC50,ligand), basic unit L-Fuc; for PotencyL-Fuc: IC50 L-fucose / IC50 ligand; for PotencyAzide1: relative to azide 1. On the procedure: To analyse the competitive inhibition of PHL binding to a multivalent surface, the surface plasmon resonance (SPR) technique was employed. A sensor chip presenting α-L-fucopyranoside residues was treated with a constant concentration of PHL, while an increasing concentration of the ligands was used to determine IC50 (Table 2, Fig. 3). […] To assess the contribution of valency to the affinity increase, an affinity improvement factor β was calculated as the relationship IC50,basic unit/(valency × IC50,ligand)[30].
Surface plasmon resonance (SPR) experiments were performed on a BIAcore T200 instrument (GE Healthcare, UK) at 25 °C, using buffer A supplemented with 0.05% Tween 20 as a running buffer. α-L-fucoside was immobilized onto CM5 sensor chip (GE Healthcare, UK) covered with a carboxymethylated dextran matrix. The sensor chip surface was activated with N-ethyl-N-(3-dimethylaminopropyl)carbodiimide/N-hydroxysuccinimide solution and then coated with streptavidin using the manufacturer’s standard protocol using HBS buffer (10 mM HEPES, 150 mM NaCl, 0.05% Tween 20, pH 7. 5). Unreacted groups were blocked with 1 M ethanolamine-HCl, pH 8.5. Biotinylated carbohydrate (biotinilated monomeric probes, Lectinity, Russia) was injected onto particular measuring channel and pure biotin on blank channel at a flow rate of 5 μl/min.
SPR inhibition measurements were carried out on measuring channel with L-fucoside at a flow rate of 5 µl/min. PHL was diluted to a concentration of 20 μg/ml by the buffer A supplemented with 0.05% Tween 20, mixed 1:1 (v/v) with various concentrations of inhibitors (500–5 μM) in the same buffer and injected onto the sensor chip. The response of lectin bound to the sugar surface at equilibrium was plotted against the concentration of inhibitor in order to determine IC50 (concentration of inhibitor resulting in 50% inhibition of binding). As IC50 is not a constant and depends on the experimental set-up, a parameter called potency was used for characterization. The potency of a tested inhibitor is the ratio of IC50 of a chosen standard inhibitor (in this case L-fucose) and the inhibitor in question. Pure PHL lectin was used as a control (0% inhibition) and channel with pure biotin served as a blank. IC50 was determined from triplicates.

The subject of assay [3] is P. asymbiotica subsp. australis cells. Put plainly: Cell aggregation (cross-linking) assay. Type of assay: cell-based, Photorhabdus asymbiotica subsp. australis. Conditions: three independent measurements. An excerpt:
Because of the aggregation of PHL by calixarenes and dendrimers during SPR and ITC experiments, we decided to compare tetravalent compounds at a higher level. We performed a series of in vitro aggregation assays to reveal their aggregation properties towards P. asymbiotica subsp. australis (Table 4, Fig. 5). Prior to each assay, we confirmed the absence of aggregates in two negative controls – bacterial cells in PBS buffer and in the presence of azide 1 as a monomer. With all chosen compounds, we observed bacterial aggregates of a variable size that confirmed that they are capable of interacting with a cell surface. This effect may be caused by interaction of the multivalent inhibitors with PHL or other receptors. The concentration of the first appearance of aggregates varied according to the nature of the ligand used. […] An unexpected observation was that calixarene 7 had the lowest aggregation potential. In contrast to other techniques (hemagglutination, SPR and ITC), where calixarenes 6 and 7 provided similar results, during cross-linking experiments calixarene 7 was four times worse than calixarene 6. At the same time, both tetrameric calixarenes 6 and 7 are in a 1,3-alternate conformation with the two-faced presentation of the fucopyranosyl epitopes on opposite regions probably occupying a similar spatial orientation. The only difference is the tert-Bu group on the upper rim in calixarene 6, which might contribute to nonpolar interactions with whole P. asymbiotica cells.
P. asymbiotica subsp. australis was inoculated from stock cells stored at −80 °C into a standard LB media and were grown in 30 °C under an orbital shaking overnight. Bacterial growth was tracked by measuring the optical density of the broth at 600 nm (OD600) using a spectrophotometer (Biochrom Ltd., BioPhotometer WGA CO 8000 Biowave). Cells were harvested when reaching an OD600 = 0.5. The culture was centrifuged at 4,300 g and room temperature for 2 minutes (Minispin, Eppendorf, Germany) and cells were then washed three times with PBS buffer. Cells were diluted in PBS to OD600 of 2.0 and kept in a fridge until performing the aggregation assay.
P. asymbiotica subsp. australis cells and fucosylated compounds in a concentration ranging from 50 mM to 3.125 mM were gently mixed in a 9:1 (v/v) ratio. The reaction mixtures were left at room temperature for 10 minutes. 5 µl of reaction mixture was then transferred onto a microscope slide and observed under a fluorescence microscope (OLYMPUS IX81 Microscope IX81F-3 with IX2-UCB-2 Controller and X-Cite 120PC Q; Olympus and Excelitas Technologies, Japan, resp. USA). As a negative control, bacterial cells with/without azide 1 as a monomer were used. Three independent measurements were performed.

In assay [4] the target is T1, PHL. Set-up: method as in PMID 28806750. The settings on record: SPR competition assay, earlier work; cited from earlier work.
The target of assay [5] is T1, PHL. Put plainly: Isothermal titration calorimetry of PHL with ligands. Type of assay: binding. The text has this:
The binding of PHL to different α-L-fucoside compounds was further characterized by isothermal titration calorimetry (ITC), enabling determination of the complete thermodynamic profile of the molecular interactions (Table 3, Fig. 4). […] Because of this, it was not possible to evaluate the data, despite the obvious interaction. The dendrimers also cross-linked/aggregated the protein as with calixarenes, however the curves provided clear outcomes with an affinity in the low micromolar range. The dissociation constants (KD) of all dendrimers correlate with their valency – the higher number of fucose, the more decreased KD. […] The stoichiometry value n corresponds to the number of terminal fucoses per ligand molecule. The n value decreases from 4 to 1 as the number of fucose units increases from 1 to 12 (Table 3).
PHL protein in buffer A was equilibrated at room temperature at least for 30 min before ITC measurement. All ITC experiments were performed using ITC200 calorimeter (Malvern Panalytical, UK) at 25 °C. Carbohydrate ligands dissolved in buffer A were used at different concentrations. Protein in the calorimeter cell (50 μM) was titrated by consecutive additions (2 μl) of the ligand (1.5–5 mM) in the syringe while stirring at 1000 rpm. Integrated heat effects were analysed by nonlinear regression using a single-site binding model and global fitting in Origin 7 software (Microcal Instruments)[37]. The thermodynamic parameters of synthesised inhibitors were determined from two independent measurements.

SMILES strings stand for the structures. ≈ marks a conversion by molar mass, not a printed value. Read-outs that look alike come from different tables or passages of the source.

T1 sequence (C7BLE4 entry or part of it): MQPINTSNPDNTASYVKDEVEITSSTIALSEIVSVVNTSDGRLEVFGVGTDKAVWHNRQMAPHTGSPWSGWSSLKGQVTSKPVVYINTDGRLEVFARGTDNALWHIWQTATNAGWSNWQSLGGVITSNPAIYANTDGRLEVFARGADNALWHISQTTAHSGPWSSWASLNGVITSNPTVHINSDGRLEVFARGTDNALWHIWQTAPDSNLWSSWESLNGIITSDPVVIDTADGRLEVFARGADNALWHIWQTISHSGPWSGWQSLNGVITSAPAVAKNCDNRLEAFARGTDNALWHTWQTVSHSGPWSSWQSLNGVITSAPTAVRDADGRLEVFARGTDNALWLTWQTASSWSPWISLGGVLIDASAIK

Turning to `C[C@@H]1O[C@@H](CCn2cc(COc3c4cc(C(C)(C)C)cc3Cc3cc(C(C)(C)C)cc(c3OCc3cn(CC[C@@H]5O[C@@H](C)[C@@H](O)[C@@H](O)[C@@H]5O)nn3)Cc3cc(C(C)(C)C)cc(c3OCc3cn(CC[C@@H]5O[C@@H](C)[C@@H](O)[C@@H](O)[C@@H]5O)nn3)Cc3cc(C(C)(C)C)cc(c3OCc3cn(CC[C@@H]5O[C@@H](C)[C@@H](O)[C@@H](O)[C@@H]5O)nn3)C4)nn2)[C@@H](O)[C@H](O)[C@@H]1O` [Calixarene 6], at PHL [1], the “MIC (minimal inhibitory concentration, hemagglutination by PHL)” value is 100 µM (≈ 167 µg/mL); the PotencyL-Fuc came to 31.3; the “β L-Fuc (affinity improvement factor)” value is recorded as 7.8; the “β Azide1 (affinity improvement factor)” value is 0.5. For the same compound, the PotencyAzide1 on PHL [1] was found to be 2. At PHL [2], the IC50 (usually the concentration that gives 50% inhibition) came out at 0.195 ± 0.023 µM, the “β L-Fuc (affinity improvement factor)” value is 464, the PotencyL-Fuc is recorded as 1,853 and the PotencyAzide1 is 59. Besides, the “β Azide1 (affinity improvement factor)” value at PHL [2] (basic unit azide 1) is reported as 15. Also, the “β Azide1 (affinity improvement factor)” value at PHL [2] (basic unit azide 1, listed as calixarene 6) is recorded as “approximately 15”. Further, in assay [3], the “The lowest concentration able to aggregate P. asymbiotica cells” value was found to be 1.25 mM.

For the compound `C[C@@H]1O[C@@H](CCn2cc(COc3c4cccc3Cc3cccc(c3OCc3cn(CC[C@@H]5O[C@@H](C)[C@@H](O)[C@@H](O)[C@@H]5O)nn3)Cc3cccc(c3OCc3cn(CC[C@@H]5O[C@@H](C)[C@@H](O)[C@@H](O)[C@@H]5O)nn3)Cc3cccc(c3OCc3cn(CC[C@@H]5O[C@@H](C)[C@@H](O)[C@@H](O)[C@@H]5O)nn3)C4)nn2)[C@@H](O)[C@H](O)[C@@H]1O` [Calixarene 7], on PHL [1], the “MIC (minimal inhibitory concentration, hemagglutination by PHL)” value was 100 µM (≈ 145 µg/mL); the PotencyL-Fuc came out at 31.3; the “β L-Fuc (affinity improvement factor)” value came to 7.8; the “β Azide1 (affinity improvement factor)” value is listed as 0.5. At PHL [1], this compound showed a PotencyAzide1 of 2. Further, at PHL [2], the IC50 is 0.178 ± 0.02 µM, the “β L-Fuc (affinity improvement factor)” value was 508, the PotencyL-Fuc is on record as 2,029 and the PotencyAzide1 stood at 61. Further, the “β Azide1 (affinity improvement factor)” value at PHL [2] (basic unit azide 1) is given as “approximately 15”. In addition, the “The lowest concentration able to aggregate P. asymbiotica cells” value in assay [3] stood at 5 mM.

As for `CO[C@@H]1O[C@@H](C)[C@@H](O)[C@@H](O)[C@@H]1O` [α-Me-Fuc, methyl α-L-fucopyranoside, reference compound], on PHL [4], the IC50 was 40 µM and the “fold stronger ligand than free L-fucose” value is listed as roughly 10 fold. Besides, on PHL [5] (ITC at 25 °C), binding was characterised by a dissociation constant (Kd) of 267 ± 11 µM, the “−TΔS” value is 9.23 ± 1.03 kcal/mol, the “−ΔG” value is 4.88 ± 0.22 kcal/mol and the “−ΔH” value came to 14.1 ± 1 kcal/mol. Moreover, the “n (stoichiometry)” value on PHL [5] (ITC at 25 °C, two independent measurements) amounted to 2.9 ± 0.2. Moreover, the “Potency L-Fuc” value on PHL [5] (ITC, KD L-fucose / KD ligand) came out at 5. In addition, the “β L-Fuc (affinity improvement factor)” value at PHL [5] (ITC, KD,basic unit/(valency × KD,ligand), basic unit L-Fuc) is on record as 5. For the same compound, at PHL [1], the “MIC (minimal inhibitory concentration, hemagglutination by PHL)” value was 400 µM (≈ 71.3 µg/mL); the PotencyL-Fuc was found to be 7.8; the “β L-Fuc (affinity improvement factor)” value is on record as 7.8. On PHL [2], the half-inhibitory concentration (IC50) is 38.5 ± 1.2 µM, the “β L-Fuc (affinity improvement factor)” value was 9 and the PotencyL-Fuc stood at 9.

(Values after PMC6797808, “Fucosylated inhibitors of recently identified bangle lectin from Photorhabdus asymbiotica” (Scientific Reports, 2019).)
